Data as given in patent US20100069366A1, “ANTIBACTERIAL QUINOLINE DERIVATIVES” (JANSSEN-CILAG, priority 2006, published 2010).
In brackets after ≈: the same amount, converted by molar mass.

How the values were obtained:
Type in all cases: cell-based
M. Smegmatis ATCC607 = test: In-vitro anti-bacterial activity against strain M. smegmatis ATCC607; settings: for M. smegmatis IC90: 90% inhibitory concentration for bacterial growth, 48 hours, Alamar Blue fluorescence; for IC90: Mycolicibacterium smegmatis, ATCC607, 48 h, read-out: M. smegmatis IC90 (μg/ml), 90% inhibitory concentration for bacterial growth, Alamar Blue fluorescence
Description: Flat-bottom, sterile 96-well plastic microtiter plates were filled with 180 μl of sterile deionized water, supplemented with 0.25% BSA. Subsequently, stock solutions (7.8× final test concentration) of compounds were added in 45 μl volumes to a series of duplicate wells in column 2 so as to allow evaluation of their effects on bacterial growth. Serial five-fold dilutions (45 μl in 180 μl) were made directly in the microtiter plates from column 2 to 11 using a customised robot system (Zymark Corp., Hopkinton, Mass.). Pipette tips were changed after every 3 dilutions to minimize pipetting errors with high hydrophobic compounds. Untreated control samples with (column 1) and without (column 12) inoculum were included in each microtiter plate. Approximately 250 CFU per well of bacteria inoculum, in a volume of 100 μl in 2.8× Mueller-Hinton broth medium, was added to the rows A to H, except column 12. The same volume of broth medium without inoculum was added to column 12 in row A to H. The cultures were incubated at 37° C. for 48 hours in a humidified 5% CO2 atmosphere (incubator with open air valve and continuous ventilation). At the end of incubation, two days after inoculation, the bacterial growth was quantitated fluorometrically. Therefore Alamar Blue (10×) was added to all wells in a volume of 20 μl and plates were incubated for another 2 hours at […]
The fluorescence was read in a computer-controlled fluorometer (Cytofluor, Biosearch) at an excitation wavelength of 530 nm and an emission wavelength of 590 nm (gain 30).

[1] = system: Streptococcus pneumoniae (ATCC6305); test: Microtitre plate assay, IC90 determination, SPN 6305; settings: 90% inhibitory concentration for bacterial growth, resazurin; for IC90 (μg/ml) SPN 6305: Streptococcus pneumoniae ATCC6305; for IC90: Streptococcus pneumoniae, ATCC6305, read-out: IC90 (μg/ml) SPN 6305, Streptococcus pneumoniae ATCC6305
Description: (§1) The bacteria used in this study were grown overnight in flasks containing 100 ml Mueller-Hinton Broth (Becton Dickinson—cat. no. 275730) in sterile de-ionized water, with shaking, at 37° C. Stocks (0.5 ml/tube) were stored at −70° C. until use. Bacteria titrations were performed in microtiter plates to detect the TCID50, in which the TCID50 represents the dilution that gives rise to bacterial growth in 50% of inoculated cultures.
(§2) In general, an inoculum level of approximately 100 TCID50 was used for susceptibility testing.
(§3) Flat-bottom, sterile 96-well plastic microtiter plates were filled with 180 μl of sterile deionized water, supplemented with 0.25% BSA. Subsequently, stock solutions (7.8× final test concentration) of compounds were added in 45 μl volumes in column 2 Serial five-fold dilutions (45 μl in […]) were made directly in the microtiter plates from column 2 to reach column 11. Untreated control samples with (column 1) and without (column 12) inoculum were included in each microtiter plate. Depending on the bacteria type, approximately 10 to 60 CFU per well of bacteria inoculum (100 TCID50), in a volume of 100 μl in 2.8× Mueller-Hinton broth medium, was added to the rows A to H, except column 12. The same volume of broth medium without inoculum was added to column 12 in row A to H. The cultures were incubated at 37° C. for 24 hours under a normal atmosphere (incubator with open air valve and continuous ventilation). At the end of incubation, one day after inoculation, the bacterial growth was quantitated fluorometrically. Therefore resazurin (0.6 mg/ml) was added in a volume of 20 μl to all wells 3 hours after inoculation, and the plates were re-incubated overnight. A change in colour from blue to pink indicated the growth of bacteria. The fluorescence was read in a computer-controlled fluorometer (Cytofluor Biosearch) at an excitation wavelength of 530 nm and an emission wavelength of 590 nm. The % growth inhibition achieved by the compounds was calculated according to standard methods.

[2] = system: Staphylococcus aureus (ATCC29213); test: Microtitre plate assay, IC90 determination, STA 29213; settings: for IC90 (μg/ml) STA 29213: Staphylococcus aureus ATCC29213, 90% inhibitory concentration for bacterial growth, resazurin; for IC90: Staphylococcus aureus, ATCC29213, read-out: IC90 (μg/ml) STA 29213
Description: as §1, §2, §3

Compound | M. smegmatis IC90 (M. Smegmatis ATCC607) [µg/mL] | IC90 (μg/ml) SPN 6305 [1] [µg/mL] | IC90 (μg/ml) STA 29213 [2] [µg/mL] | IC90 (M. Smegmatis ATCC607) [µg/mL] | IC90 [2] [µg/mL] | IC90 [1] [µg/mL]
COc1nc2ccc(-c3cc4ccccc4s3)cc2cc1C(C(=CCN(C)C)c1cccc2ccccc12)c1ccccc1 (mixture of isomers) [Compound 34] | 2.35 | 10.51 |  |  |  | 
COc1nc2ccc(Br)cc2cc1C(=C(CCN1CCOCC1)c1ccccc1)c1ccccc1 (mixture of isomers) [Compound 43] | 4.21 | 8.39 | 52.95 |  |  | 
COc1nc2ccc(Br)cc2cc1C(=C(CCN1CCN(C)CC1)c1ccccc1)c1ccccc1 (mixture of isomers) [Compound 44] | 4.31 | 10.82 | 10.82 |  |  | 
COc1nc2ccc(Br)cc2cc1C(=C(CCN1CCN(C)CC1)c1ccccc1)c1ccccc1 (mixture of isomers) [Compound 45] | 9.65 | 10.82 | 43.09 |  |  | 
COc1nc2ccc(F)cc2cc1C(C(=CCN(C)C)c1ccccc1)c1ccccc1 (racemic) [Compound 24] | 5.37 | 1.51 (≈ 3.54 µM) | 33.88 (≈ 79.4 µM) |  |  | 
CCN(CC)CC=C(c1cccc2ccccc12)C(c1ccccc1)c1cc2cc(Br)ccc2nc1OC (racemic) [Compound 28] | 1.79 | 2.01 (≈ 3.55 µM) | 8.96 (≈ 15.8 µM) |  |  | 
COc1ccc2nc(OC)c(C(C(=CCN(C)C)c3ccccc3)c3ccccc3)cc2c1 (racemic) [Compound 31] | 6.95 | 7.8 (≈ 17.8 µM) | 39.09 (≈ 89.1 µM) |  |  | 
COc1nc2ccc(-c3cc4ccccc4s3)cc2cc1C(C(=CCN(C)C)c1cccc(F)c1)c1ccccc1 (racemic) [Compound 33] | 7.03 | 7.89 (≈ 14.1 µM) | 8.86 (≈ 15.9 µM) |  |  | 
COc1nc2ccc(Br)cc2cc1C(C(=CCn1cncn1)c1ccccc1)c1ccccc1 (racemic) [Compound 47] | 20.36 |  |  |  |  | 
COc1nc2ccc(Br)cc2cc1C(C(=CCN1CCN(C)CC1)c1ccccc1)c1ccccc1 (racemic) [Compound 48] | 1.72 | 2.72 (≈ 5.01 µM) | 10.82 (≈ 19.9 µM) |  |  | 
COc1nc2ccc(Br)cc2cc1C(=C(CCn1ccnc1)c1ccccc1)c1ccccc1 (single isomer, unassigned) [Compound 5] | 5.1 | 36.14 (≈ 70.8 µM) | 36.14 (≈ 70.8 µM) |  |  | 
COc1nc2ccc(Br)cc2cc1C(=C(CCn1ccnc1)c1ccccc1)c1ccccc1 (single isomer, unassigned) [Compound 6] | 10.18 | 10.18 (≈ 19.9 µM) | 10.18 (≈ 19.9 µM) |  |  | 
COc1nc2ccc(F)cc2cc1C(=C(CCN(C)C)c1ccccc1)c1ccccc1 (single isomer, unassigned) [Compound 39] | 16.98 | 8.51 (≈ 20 µM) | 33.88 (≈ 79.4 µM) |  |  | 
COc1nc2ccc(Br)cc2cc1C(=C(CCn1cncn1)c1ccccc1)c1ccccc1 (single isomer, unassigned) [Compound 42] | 22.84 |  |  |  |  | 
COc1nc2ccc(Br)cc2cc1/C(=C(/CCN(C)C)c1ccccc1)c1ccc(Cl)cc1 [Compound 1] |  |  |  | 1.65 (≈ 3.16 µM) | 8.27 (≈ 15.8 µM) | 1.65 (≈ 3.16 µM)
CSc1nc2ccc(Br)cc2cc1/C(=C(/CCN(C)C)c1ccccc1)c1ccccc1 [Compound 2] |  |  |  | 1.59 (≈ 3.16 µM) | 7.98 (≈ 15.8 µM) | 1.59 (≈ 3.16 µM)
CSc1nc2ccc(Br)cc2cc1/C(=C(\CCN(C)C)c1ccccc1)c1ccccc1 [Compound 3] |  |  |  | 2 (≈ 3.97 µM) | 7.98 (≈ 15.8 µM) | 1.59 (≈ 3.16 µM)
